This assay concerns test plant species. Description: Post-emergent herbicidal activity test (greenhouse, foliar spray, visual growth reduction). The note with it: post-emergence, 336 h, 140 g ai/ha. The assay is classed as in vivo. The gist of the method: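 Seedlings were raised 7-21 d in a greenhouse under a 15 h photoperiod until the first or second true leaf. Each compound, dissolved in acetone:DMSO 97:3 and diluted into a surfactant-containing spray mixture, was then applied at 187 L/ha. Plants were subirrigated, and growth reduction was scored visually at 14 d.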

The mark [1] stands for this setting: ECHCG: barnyardgrass (Echinochloa crus-galli), 14 days after application, read-out: Visual Growth Reduction (%) 14 Days After Application, ECHCG.
The mark [2] stands for this setting: IPOHE: ivy-leaf morning glory (Ipomoea hederacea), 14 days after application, read-out: Visual Growth Reduction (%) 14 Days After Application, IPOHE.
Setting [3] is: KCHSC: kochia (Bassia scoparia), 14 days after application, read-out: Visual Growth Reduction (%) 14 Days After Application, KCHSC.
Setting [4] is: ORYSA: rice (Oryza sativa), 14 days after application, read-out: Visual Growth Reduction (%) 14 Days After Application, ORYSA.
Setting [5] is: SETFA: giant foxtail (Setaria faberi), 14 days after application, read-out: Visual Growth Reduction (%) 14 Days After Application, SETFA.
Setting [6] is: SORVU: grain sorghum (Sorghum vulgare), 14 days after application, read-out: Visual Growth Reduction (%) 14 Days After Application, SORVU.
The mark [7] stands for this setting: STEME: common chickweed (Stellaria media), 14 days after application, read-out: Visual Growth Reduction (%) 14 Days After Application, STEME.
Setting [8] is: TRZAS: wheat, spring (Triticum aestivum), 14 days after application, read-out: Visual Growth Reduction (%) 14 Days After Application, TRZAS.
Setting [9] is: blackgrass (Alopecurus myosuroides), 14 Days After Application, read-out: Visual Growth Reduction (%) ALOMY.
[10] abbreviates: canada thistle (Cirsium arvense), 14 Days After Application, read-out: Visual Growth Reduction (%) CIRAR.
Where [11] appears, read: crabgrass (Digitaria sanguinalis), 14 Days After Application, read-out: Visual Growth Reduction (%) DIGSA.
The mark [12] stands for this setting: lambsquarters (Chenopodium album), 14 Days After Application, read-out: Visual Growth Reduction (%) CHEAL.
[13] abbreviates: redroot pigweed (Amaranthus retroflexus), 14 Days After Application, read-out: Visual Growth Reduction (%) AMARE.
[14] abbreviates: wild oat (Avena fatua), 14 Days After Application, read-out: Visual Growth Reduction (%) AVEFA.
Setting [15] is: yellow nutsedge (Cyperus esculentus), 14 Days After Application, read-out: Visual Growth Reduction (%) CYPES.

Read-outs that look alike come from different tables or passages of the source.

Regarding `COC(=O)c1nc(-c2ccc(Cl)c(F)c2C)ccc1Cl` [F298, Methyl 3-chloro-6-(4-chloro-3-fluoro-2-methylphenyl) picolinate], the pest or weed control at 140 g/ha by setting is: under setting [1], 0 to 29%; under setting [2], 95 to 100%; under setting [3], 0 to 29%; under setting [4], 0 to 29%; under setting [5], 75 to 84%; under setting [6], 75 to 84%. The pest or weed control at 140 g/ha under setting [7] lay within 0 to 29%; the pest or weed control at 140 g/ha under setting [8] lay in the range of 0 to 29%; the pest or weed control at 140 g/ha under setting [9] fell in the range of 0 to 29%; the pest or weed control at 140 g/ha under setting [10] is 60 to 74%; the pest or weed control at 140 g/ha under setting [11] is 0 to 29%; the pest or weed control at 140 g/ha under setting [12] fell in the range of 75 to 84%. Besides, the pest or weed control at 140 g/ha was 30 to 44% under setting [13], 0 to 29% under setting [14] and 0 to 29% under setting [15].

With `COc1c(Cl)ccc(-c2ccc(Cl)c(C(=O)OCc3ccccc3)n2)c1F` [F299, Benzyl 3-chloro-6-(4-chloro-2-fluoro-3-methoxyphenyl) picolinate], the pest or weed control at 140 g/ha lay within 0 to 29% under setting [1]; 60 to 74% under setting [2]; 75 to 84% under setting [3]; 0 to 29% under setting [4]; 0 to 29% under setting [5]; 0 to 29% under setting [6]. Moreover, the pest or weed control at 140 g/ha is, setting by setting: under setting [7], 60 to 74%; under setting [8], 0 to 29%; under setting [9], 0 to 29%; under setting [10], 75 to 84%; under setting [11], 0 to 29%; under setting [12], 75 to 84%. Moreover, the pest or weed control at 140 g/ha is, setting by setting: under setting [13], 60 to 74%; under setting [14], 0 to 29%; under setting [15], 75 to 84%.

As to `COc1c(Cl)cc(Cl)c(-c2nc(C(=O)OCc3ccccc3)c(Cl)cc2F)c1F` [F300, Benzyl 3-chloro-6-(4,6-dichloro-2-fluoro-3-methoxyphenyl)-5-fluoropicolinate], the pest or weed control at 140 g/ha is 0 to 29% under setting [1]; 60 to 74% under setting [2]; 30 to 44% under setting [3]; 0 to 29% under setting [4]; 0 to 29% under setting [5]; 0 to 29% under setting [6]. The pest or weed control at 140 g/ha fell in the range of 0 to 29% under setting [7]; 0 to 29% under setting [8]; 0 to 29% under setting [9]; 45 to 59% under setting [10]; 0 to 29% under setting [11]; 75 to 84% under setting [12]. In addition, the pest or weed control at 140 g/ha is, setting by setting: under setting [13], 0 to 29%; under setting [14], 0 to 29%; under setting [15], 0 to 29%.

Take `COC(=O)c1nc(-c2c(Cl)cccc2OC)c(F)cc1Cl` [F301, Methyl 3-chloro-6-(2-chloro-6-methoxyphenyl)-5-fluoropicolinate]: the pest or weed control at 140 g/ha by setting is: under setting [1], 0 to 29%; under setting [2], 0 to 29%; under setting [3], 0 to 29%; under setting [4], 0 to 29%; under setting [5], 0 to 29%; under setting [6], 0 to 29%. In addition, the pest or weed control at 140 g/ha reads like this: under setting [7], 0 to 29%; under setting [8], 0 to 29%; under setting [9], 0 to 29%; under setting [10], 0 to 29%; under setting [11], 0 to 29%; under setting [12], 0 to 29%. In addition, the pest or weed control at 140 g/ha under setting [13] lay in the range of 0 to 29%, the pest or weed control at 140 g/ha under setting [14] lay within 0 to 29% and the pest or weed control at 140 g/ha under setting [15] was 0 to 29%.

Values taken from patent publication US20230017045A1, “PYRIDINE AND PYRIMIDINE CARBOXYLATE HERBICIDES AND METHODS OF USE THEREOF” (Dow AgroSciences LLC, priority 2017, published 2023).
